In PubChem BioAssay AID1388 (Sanford-Burnham Center for Chemical Genomics, 2008):
Activity calls are given as the source filed them.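 The calls were made as follows: active = no detectable phosphorylated eIF2 alpha band on the immunoblot of stressed cell lysates; inactive = phospho eIF2 alpha band still visible on the blot.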

Molecular target: Eukaryotic translation initiation factor 2 subunit 1 (Rattus norvegicus) (UniProt P68101)
Assay: inhibition of eIF2α phosphorylation under ER stress, late-stage follow-up, mechanism study for ER stress cell death project, cell-based, thapsigargin, Western blot (AID 1388)
Details: CSM14.1 cells, phospho-eIF2a Western blot

Sequence of Eukaryotic translation initiation factor 2 subunit 1 (Rattus norvegicus) (P68101 whole entry, looked up): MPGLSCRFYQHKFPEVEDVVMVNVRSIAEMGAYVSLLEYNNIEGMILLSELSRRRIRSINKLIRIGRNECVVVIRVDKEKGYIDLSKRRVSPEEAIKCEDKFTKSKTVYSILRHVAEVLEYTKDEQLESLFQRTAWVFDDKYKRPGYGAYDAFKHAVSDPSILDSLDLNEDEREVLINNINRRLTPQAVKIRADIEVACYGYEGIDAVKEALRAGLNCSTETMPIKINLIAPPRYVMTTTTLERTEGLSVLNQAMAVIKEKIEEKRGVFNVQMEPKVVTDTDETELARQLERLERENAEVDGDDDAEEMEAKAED

Row | Structure (SMILES) | outcome
1 | CCCOc1ccc(C2Nc3ccccc3NC3=C2C(=O)CC(c2ccc(OC)c(OC)c2)C3)cc1 (stereo unspecified) | inactive
2 | COc1ccc(C2CC(=O)C3=C(C2)Nc2ccccc2NC3c2ccccc2C(F)(F)F)cc1OC (stereo unspecified) | inactive
3 | CC1(C)CC(=O)C2=C(C1)Nc1ccccc1NC2c1ccc(-c2ccccc2)cc1 (stereo unspecified) | inactive
4 | CCOc1cc(C2Nc3ccccc3NC3=C2C(=O)CC(c2ccc(OC)cc2)C3)cc(Cl)c1O (stereo unspecified) | inactive
5 | COc1ccc(C2CC(=O)C3=C(C2)Nc2ccccc2NC3c2cccc(Br)c2)cc1OC (stereo unspecified) | inactive
6 | CSc1ccc(C2Nc3ccccc3NC3=C2C(=O)CC(c2ccccc2)C3)cc1 (stereo unspecified) | inactive
7 | COc1ccc(C2CC(=O)C3=C(C2)Nc2ccccc2NC3c2cccc(C(F)(F)F)c2)cc1OC (stereo unspecified) | inactive
8 | COc1ccc(C2CC(=O)C3=C(C2)Nc2ccccc2NC3c2cccc(Oc3ccccc3)c2)cc1OC (stereo unspecified) | inactive
9 | COc1ccc(C2CC(=O)C3=C(C2)Nc2ccccc2NC3c2cc(C)ccc2C)cc1 (stereo unspecified) | inactive
10 | O=C1CC(c2ccccc2)CC2=C1C(c1c(F)cccc1Cl)Nc1ccccc1N2 (stereo unspecified) | inactive
11 | CCOc1cccc(C2Nc3ccccc3NC3=C2C(=O)CC(c2ccc(OC)cc2)C3)c1 (stereo unspecified) | inactive
